Measured values from ChEMBL document CHEMBL2074342, “Kinetic analysis of rhodamines efflux mediated by the multidrug resistance protein (MRP1)” (Biophys J, 2003).

Target: Multidrug resistance-associated protein 1 (Homo sapiens, UniProt P33527)
Experiment: TP_TRANSPORTER: intracellular accumulation in MRP1-expressing GLC4/ADR cell
Type: functional, cell-based
Settings: glc-4/adr

Sequence of Multidrug resistance-associated protein 1 (P33527 whole entry): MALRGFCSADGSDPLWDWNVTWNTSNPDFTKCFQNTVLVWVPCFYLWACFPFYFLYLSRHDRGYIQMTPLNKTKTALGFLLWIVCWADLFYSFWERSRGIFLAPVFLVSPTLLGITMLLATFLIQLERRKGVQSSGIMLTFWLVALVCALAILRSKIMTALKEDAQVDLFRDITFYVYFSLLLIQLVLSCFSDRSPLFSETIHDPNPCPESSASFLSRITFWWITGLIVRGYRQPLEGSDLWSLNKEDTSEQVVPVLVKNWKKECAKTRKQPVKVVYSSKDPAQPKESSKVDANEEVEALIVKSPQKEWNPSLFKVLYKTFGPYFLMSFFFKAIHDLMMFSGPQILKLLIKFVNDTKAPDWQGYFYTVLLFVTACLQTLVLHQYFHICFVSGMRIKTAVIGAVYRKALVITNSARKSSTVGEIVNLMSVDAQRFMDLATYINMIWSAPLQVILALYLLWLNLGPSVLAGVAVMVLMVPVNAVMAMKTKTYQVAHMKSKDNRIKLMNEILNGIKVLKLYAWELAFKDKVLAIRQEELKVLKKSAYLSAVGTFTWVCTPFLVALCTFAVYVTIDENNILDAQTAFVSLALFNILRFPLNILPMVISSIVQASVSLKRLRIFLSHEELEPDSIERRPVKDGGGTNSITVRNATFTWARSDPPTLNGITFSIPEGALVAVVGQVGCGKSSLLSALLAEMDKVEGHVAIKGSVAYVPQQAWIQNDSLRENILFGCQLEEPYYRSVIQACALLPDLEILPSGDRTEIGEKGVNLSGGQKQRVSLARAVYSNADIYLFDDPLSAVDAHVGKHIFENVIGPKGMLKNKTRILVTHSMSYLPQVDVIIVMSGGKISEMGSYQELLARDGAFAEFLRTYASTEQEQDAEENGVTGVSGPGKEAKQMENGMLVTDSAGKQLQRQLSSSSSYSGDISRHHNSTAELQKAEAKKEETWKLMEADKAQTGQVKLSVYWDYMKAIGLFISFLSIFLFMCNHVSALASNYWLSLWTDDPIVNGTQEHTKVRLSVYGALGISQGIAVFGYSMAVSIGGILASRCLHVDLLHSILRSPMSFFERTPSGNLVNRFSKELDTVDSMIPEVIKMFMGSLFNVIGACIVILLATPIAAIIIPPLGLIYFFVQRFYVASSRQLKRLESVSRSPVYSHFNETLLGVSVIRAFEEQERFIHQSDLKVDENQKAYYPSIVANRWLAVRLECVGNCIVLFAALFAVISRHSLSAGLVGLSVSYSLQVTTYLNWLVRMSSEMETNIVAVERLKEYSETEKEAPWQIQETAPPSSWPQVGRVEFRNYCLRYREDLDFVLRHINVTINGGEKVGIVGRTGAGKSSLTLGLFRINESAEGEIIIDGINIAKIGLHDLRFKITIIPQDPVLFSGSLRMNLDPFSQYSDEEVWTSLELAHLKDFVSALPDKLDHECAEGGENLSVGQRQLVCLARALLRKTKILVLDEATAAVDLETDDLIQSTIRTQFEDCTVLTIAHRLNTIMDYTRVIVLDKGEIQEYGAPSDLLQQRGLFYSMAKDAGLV

Row | Structure (SMILES) | Activity
1 | CN(C)c1ccc2c(-c3ccccc3C(=O)[O-])c3ccc(N(C)C)cc3[o+]c2c1 [TETRAMETHYLRHODAMINE] | substrate [+]
2 | CC/N=c1\cc2oc3cc(NCC)c(C)cc3c(-c3ccccc3C(=O)OCC)c-2cc1C.Cl [RHODAMINE 6G HYDROCHLORIDE] | substrate [+]
3 | COC(=O)c1ccccc1-c1c2ccc(=[N+](C)C)cc-2oc2cc(N(C)C)ccc12 [RHODAMINE II] | substrate [+]
4 | CCOC(=O)c1ccccc1-c1c2ccc(=[N+](C)C)cc-2oc2cc(N(C)C)ccc12 [RHODAMINE I] | substrate [+]
